The values that follow come from patent US12091411B2, “IRAK degraders and uses thereof” (Kymera Therapeutics, Inc., priority 2022, dated 2024).

As a reminder, the DC50 is the concentration giving 50% degradation.

SMILES strings stand for the structures. Read-outs that look alike come from different tables or passages of the source.

This assay concerns the target T1, IRAK4 (Homo sapiens, UniProt Q9NWZ3).
T1 construct: Degradation of IRAK4 in OCI-LY10 was quantitatively measured using Meso Scale Discovery technology; endogenous in cells; host or cells: OCI-LY10
T1 sequence (Q9NWZ3 1-460): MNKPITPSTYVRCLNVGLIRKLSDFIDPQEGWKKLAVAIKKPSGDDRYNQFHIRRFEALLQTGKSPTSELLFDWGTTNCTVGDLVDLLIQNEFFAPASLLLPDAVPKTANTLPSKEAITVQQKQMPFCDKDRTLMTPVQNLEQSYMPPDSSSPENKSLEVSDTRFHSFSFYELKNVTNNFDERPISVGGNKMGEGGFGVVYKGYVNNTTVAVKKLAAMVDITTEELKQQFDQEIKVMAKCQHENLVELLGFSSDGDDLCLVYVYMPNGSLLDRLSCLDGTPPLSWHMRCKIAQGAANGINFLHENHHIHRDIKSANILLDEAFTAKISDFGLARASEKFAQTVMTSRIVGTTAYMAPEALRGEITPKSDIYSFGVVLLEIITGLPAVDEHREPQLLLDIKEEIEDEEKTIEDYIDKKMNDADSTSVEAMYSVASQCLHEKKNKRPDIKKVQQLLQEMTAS
Briefly: IRAK4 MSD Degradation in OCI-LY10. The format is cell-based. Particulars: OCI-LY10 cells, MSD. The essentials: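 DC50, from a three-parameter logistic fit and reported as letter bins A (<0.01 μM), B, C, D (>0.2 μM or not tested), reflects IRAK4 loss measured by MSD electrochemiluminescence in OCI-LY10 lysates. Treatment: 8 doses, 1:3 steps, top 1 to 10 μM, 4 to 24 h, 37 °C.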

Where [1] appears, read: 4 hrs incubation, read-out: IRAK4 degradation in OCI-LY10 at 4 hrs: DC50.
[2] abbreviates: 24 hrs incubation, read-out: IRAK4 degradation in OCI-LY10 at 24 hrs: DC50.

For the molecule `O=C1CCN(c2ccc(C#CCOC3CCN(C[C@H]4CC[C@H](n5cc(NC(=O)c6cnn7ccc(N8C[C@H]9C[C@@H]8CO9)nc67)c(C(F)F)n5)CC4)CC3)cc2)C(=O)N1` [I-218], the DC50 was 100 to 200 nM under setting [1] and over 200 nM under setting [2].
In the same order, the values of `Cn1c(=O)n(C2CCC(=O)NC2=O)c2cccc(C#CCN3CCN(C[C@H]4CC[C@H](n5cc(NC(=O)c6cnn7ccc(C(C)(C)C)nc67)c(C(F)F)n5)CC4)CC3)c21` (some centres unmarked) [I-219] are over 200 nM and over 200 nM.
On the same counts, the results for `COC(C)(C)c1ccn2ncc(C(=O)Nc3cn([C@H]4CC[C@H](CN5CCN(CC#Cc6cccc7c6n(C)c(=O)n7C6CCC(=O)NC6=O)CC5)CC4)nc3C(F)F)c2n1` (some centres unmarked) [I-220] are over 200 nM and over 200 nM.
Turning to `Cn1c(=O)n(C2CCC(=O)NC2=O)c2cccc(C#CCN3CCN(C[C@H]4CC[C@H](n5cc(NC(=O)c6cnn7ccc(N8CCCC8(C)C)nc67)c(C(F)F)n5)CC4)CC3)c21` (some centres unmarked) [I-221], the DC50 is over 200 nM under setting [1] and 10 to 100 nM under setting [2].
In the same order, the values of `Cn1c(=O)n(C2CCC(=O)NC2=O)c2cccc(C#CCN3CCN(C[C@H]4CC[C@H](n5cc(NC(=O)c6cnn7ccc(N8CCCC89CC9)nc67)c(C(F)F)n5)CC4)CC3)c21` (some centres unmarked) [I-222] are over 200 nM and 10 to 100 nM.
On the same counts, the results for `Cn1c(=O)n(C2CCC(=O)NC2=O)c2cccc(C#CCN3CCN(C[C@H]4CC[C@H](n5cc(NC(=O)c6cnn7ccc(N8CCC(C)(C)C8)nc67)c(C(F)F)n5)CC4)CC3)c21` (some centres unmarked) [I-223] are over 200 nM and 10 to 100 nM.
In the same order, the values of `Cn1c(=O)n(C2CCC(=O)NC2=O)c2cccc(C#CCN3CCN(C[C@H]4CC[C@H](n5cc(NC(=O)c6cnn7ccc(N8CCC9(CC9)C8)nc67)c(C(F)F)n5)CC4)CC3)c21` (some centres unmarked) [I-224] are over 200 nM and 10 to 100 nM.
Turning to `Cn1c(=O)n(C2CCC(=O)NC2=O)c2cccc(C#CCN3CCN(C[C@H]4CC[C@H](n5cc(NC(=O)c6cnn7ccc(N8CC(C)(C)C8)nc67)c(C(F)F)n5)CC4)CC3)c21` (some centres unmarked) [I-225], the half-maximal degradation concentration (DC50) is over 200 nM under setting [1] and under 10 nM under setting [2].
In the same order, the values of `Cn1c(=O)n(C2CCC(=O)NC2=O)c2cccc(C#CCN3CCN(C[C@H]4CC[C@H](n5cc(NC(=O)c6cnn7ccc(N8CC9(CC9)C8)nc67)c(C(F)F)n5)CC4)CC3)c21` (some centres unmarked) [I-226] are over 200 nM and under 10 nM.
On the same counts, the results for `Cn1c(=O)n(C2CCC(=O)NC2=O)c2cccc(C#CCN3CCN(C[C@H]4CC[C@H](n5cc(NC(=O)c6cnn7ccc(N8CCC(C)(C)CC8)nc67)c(C(F)F)n5)CC4)CC3)c21` (some centres unmarked) [I-227] are over 200 nM and 10 to 100 nM.
In the same order, the values of `Cn1c(=O)n(C2CCC(=O)NC2=O)c2cccc(C#CCN3CCN(C[C@H]4CC[C@H](n5cc(NC(=O)c6cnn7ccc(N8CCC9(CC8)CC9)nc67)c(C(F)F)n5)CC4)CC3)c21` (some centres unmarked) [I-228] are over 200 nM and under 10 nM.
Consider `Cn1c(=O)n(C2CCC(=O)NC2=O)c2cccc(C#CCN3CCN(C[C@H]4CC[C@H](n5cc(NC(=O)c6cnn7ccc(N8CCCC(C)(C)C8)nc67)c(C(F)F)n5)CC4)CC3)c21` (some centres unmarked) [I-229], for which the half-maximal degradation concentration (DC50) was over 200 nM under setting [1] and 10 to 100 nM under setting [2].
In the same order, the values of `Cn1c(=O)n(C2CCC(=O)NC2=O)c2cccc(C#CCN3CCN(C[C@H]4CC[C@H](n5cc(NC(=O)c6cnn7ccc(N8CCCCC8(C)C)nc67)c(C(F)F)n5)CC4)CC3)c21` (some centres unmarked) [I-230] are over 200 nM and 10 to 100 nM.
On the same counts, the results for `Cn1c(=O)n(C2CCC(=O)NC2=O)c2cccc(C#CCOC3CCN(C[C@H]4CC[C@H](n5cc(NC(=O)c6ccn7ccc(N8C[C@H]9C[C@@H]8CO9)nc67)c(C(F)F)n5)CC4)CC3)c21` (some centres unmarked) [I-231] are over 200 nM and over 200 nM.
As for `Cn1c(=O)n(C2CCC(=O)NC2=O)c2cccc(C#CCOC3CCN(C[C@H]4CC[C@H](n5cc(NC(=O)c6ccn7ccc(N8C[C@@H]9C[C@H]8CO9)nc67)c(C(F)F)n5)CC4)CC3)c21` (some centres unmarked) [I-232], the DC50 was over 200 nM under setting [1] and over 200 nM under setting [2].
In the case of `Cn1c(=O)n(C2CCC(=O)NC2=O)c2cccc(C#CCN3CCN(C[C@H]4CC[C@H](n5cc(NC(=O)c6cnn7cc(N8CCCCC8)cnc67)c(C(F)F)n5)CC4)CC3)c21` (some centres unmarked) [I-233], the half-maximal degradation concentration (DC50) is over 200 nM under setting [1] and over 200 nM under setting [2].
Regarding `CN(C)c1cnc2c(C(=O)Nc3cn([C@H]4CC[C@H](CN5CCN(CC#Cc6cccc7c6n(C)c(=O)n7C6CCC(=O)NC6=O)CC5)CC4)nc3C(F)F)cnn2c1` (some centres unmarked) [I-234], the DC50 runs as follows: under setting [1], over 200 nM; under setting [2], 100 to 200 nM.
In the same order, the values of `Cn1c(=O)n(C2CCC(=O)NC2=O)c2cccc(C#CCN3CCN(C[C@H]4CC[C@H](n5cc(NC(=O)c6cnn7cccnc67)c(C(F)F)n5)CC4)CC3)c21` (some centres unmarked) [I-235] are over 200 nM and 10 to 100 nM.
On the same counts, the results for `Cn1c(=O)n(C2CCC(=O)NC2=O)c2cccc(N3CCC4(CCN(C[C@H]5CC[C@H](n6cc(NC(=O)c7cnn8cccnc78)c(C(F)F)n6)CC5)CC4)CC3)c21` (some centres unmarked) [I-236] are over 200 nM and under 10 nM.
On the same counts, the results for `Cn1c(=O)n(C2CCC(=O)NC2=O)c2cccc(N3CCN(CC[C@H]4CC[C@H](n5cc(NC(=O)c6cnn7cccnc67)c(C(F)F)n5)CC4)CC3)c21` (some centres unmarked) [I-237] are over 200 nM and 10 to 100 nM.
Turning to `Cn1c(=O)n(C2CCC(=O)NC2=O)c2cccc(CN3CCN(C[C@H]4CC[C@H](n5cc(NC(=O)c6cnn7cccnc67)c(C(F)F)n5)CC4)CC3)c21` (some centres unmarked) [I-238], the DC50 by setting is: under setting [1], over 200 nM; under setting [2], over 200 nM.
Regarding `Cn1c(=O)n(C2CCC(=O)NC2=O)c2cccc(N3CCC(CO[C@H]4CC[C@H](n5cc(NC(=O)c6cnn7cccnc67)c(C(F)F)n5)CC4)CC3)c21` (some centres unmarked) [I-239], the DC50 under setting [1] was over 200 nM and the DC50 under setting [2] was over 200 nM.
In the case of `Cn1c(=O)n(C2CCC(=O)NC2=O)c2cccc(N3CCC(OC[C@H]4CC[C@H](n5cc(NC(=O)c6cnn7cccnc67)c(C(F)F)n5)CC4)CC3)c21` (some centres unmarked) [I-240], the DC50 is over 200 nM under setting [1] and over 200 nM under setting [2].
Turning to `C[C@@H]([C@H]1CC[C@H](n2cc(NC(=O)c3cnn4cccnc34)c(C(F)F)n2)CC1)N(C)C1CCN(c2cccc3c2n(C)c(=O)n3C2CCC(=O)NC2=O)CC1` (some centres unmarked) [I-241], the DC50 runs as follows: under setting [1], over 200 nM; under setting [2], 100 to 200 nM.
On the same counts, the results for `CN(C1CCN(c2cccc3c2n(C)c(=O)n3C2CCC(=O)NC2=O)CC1)[C@@H](C#N)[C@H]1CC[C@H](n2cc(NC(=O)c3cnn4cccnc34)c(C(F)F)n2)CC1` (some centres unmarked) [I-242] are over 200 nM and over 200 nM.
Consider `CC(C)Oc1ccn2ncc(C(=O)Nc3cn([C@H]4CC[C@H](CN5CCN(CC#Cc6cccc7c6n(C)c(=O)n7C6CCC(=O)NC6=O)CC5)CC4)nc3C(F)F)c2n1` (some centres unmarked) [I-243], for which the DC50 was over 200 nM under setting [1] and over 200 nM under setting [2].
`Cn1c(=O)n(C2CCC(=O)NC2=O)c2cccc(C#CCN3CCN(C[C@H]4CC[C@H](n5cc(NC(=O)c6cnn7ccc(OC8CCC8)nc67)c(C(F)F)n5)CC4)CC3)c21` (some centres unmarked) [I-244]: the DC50 reads like this: under setting [1], over 200 nM; under setting [2], over 200 nM.
With `Cn1c(=O)n(C2CCC(=O)NC2=O)c2cccc(C#CCN3CCN(C[C@H]4CC[C@H](n5cc(NC(=O)c6cnn7ccc(OC8CCCC8)nc67)c(C(F)F)n5)CC4)CC3)c21` (some centres unmarked) [I-245], the DC50 under setting [1] was over 200 nM and the DC50 under setting [2] lay within 10 to 100 nM.
